Entries after “also recorded” stand apart in the source; their conditions may differ. Where two headings read alike, the source gives them in different places.
Key:
[1] = tested on: rabbit platelet aggregation; experiment: Inhibitory effect on rabbit platelet aggregation; type: cell-based; settings: for IC50: Oryctolagus cuniculus, Platelet
Protocol: (§1) Fresh blood samples were collected from male Japanese white rabbits weighing 2-3 kg. Blood was anticoagulated with citric acid (1 ml 3.8% citric acid solution +9 ml blood). These samples were centrifuged at room temperature for 20 min at 200×g to obtained platelet-rich plasma (PRP). Furthermore, the supernatant liquid was centrifuged for 10 min at 1500×g to obtained platelet-poor plasma (PPP). Aggregation of platelests was measured photometrically in a Nihon Kohden hema tracer equipped with a mechanical stirring device and with a chart record. At this time, the chart recorder was calibrated as follows: the light transmission obtained with PPP was set as 100% transmission and the optical density of PRP was taken as 0% transmission. Maximal aggregation, i.e. the maximal change in optical density of the primary wave calculated in percent light transmission. From the study, it was determined that ADP, Ap3A, PAF(platelet activating factor) and collagen induced maximal aggregations at a concentration of 1×10^-5 M, 1×10^-4 M, 1.9×10^-7 M and 5 μg/kg, respectively. In the following studies, these aggregating agents were used at maximal dose. The effect of Ap4A on platelet aggregation by ADP and Ap3A were tested. In this time, Ap4A was pretreated for 1 or 10 min before the addition of aggregating agents. Also, after the platelet aggregation was induced by addition of ADP, PAF or collagen to PRP, the platelet aggregate dispersing effect of Ap4A was tested.

[2] = tested on: rabbit platelet aggregation; experiment: Platelet aggregate dispersing effect; type: cell-based; settings: ADP- and PAF-induced; result in words (FIG. 5)
Protocol: as §1, with “Also, after the platelet aggregation was induced by addition of ADP, PAF or collagen to PRP, the platelet aggregate dispersing effect of Ap4A was tested.” left out

[3] = tested on: rats; experiment: Effects on cerebral blood flow, blood pressure and heart rate in anesthetized rats; type: in vivo, male SD rats; settings: rat
Protocol: Male SD rats (Charles River Japan Inc.) were anesthetized with intravenous urethane (0.5 g/kg)+α-chloralose (80 mg/kg).
A femoral artery was catheterized to monitor the blood pressure and heart rate, while a femoral vein was catheterized for the aministration of each of the test drugs.
The head of each rat was fixed to a brain position fixing device and a hole was made at a top portion of the cranium. A laser blood flow probe was mounted on the cranium so as to touch the surface of the cerebral cortex through the hole, whereby the cerebral blood flow thereof was measured. A predetermined amount of Ap4A was applied by bolus injection and by infusion.

[4] = tested on: human platelet-aggregation; settings: words; cited from earlier work
[5] = tested on: rats; experiment: Gradual hypotension during anesthesia in rats; type: in vivo, male SD rats; settings: rat
Protocol: Male SD rats (Charles River Japan Inc.) were anesthetized with intravenous thiopental 50 mg/kg as a bolus, followed by 1% enflurane in air.
A femoral artery was catheterized to monitor the blood pressure and heart rate, while a femoral vein was catheterized for the administration of each of the test drugs.
(§2) The control values were obtained before the administration of each test drug. Each test drug was then administered using a syringe in a dose-dependent manner for 15 minutes. The percentage (%) of the decrease of blood pressure was determined when stabilized. Changes in heart rate (H.R.) at the administration of each test drug were measured. Furthermore,the recovery of mean blood pressure after intravenous infusion of each test drug was also determined from the decrease in heart rate and the blood pressure at a maximum dose of each test drug.

[6] = tested on: rats; experiment: Recovery of blood pressure after gradual hypotension in rats; type: in vivo, male SD rats; settings: rat
Protocol: FIG. 1 is a graph showing the recovery of the blood pressure of rats anesthetized with enflurane with time, when each of Ap4A ( ), PG E1 ( ) and nitroglycerin ( ) was used as a test drug to attain gradual hypotension, with the blood pressure before the administration of each test drug being set 100% for reference.
The recovery of blood pressure after gradual hypotension by use of each of Ap4A, PG E1 and nitroglycerin was also tested.
as §2
In a test similar to the above, each of Ap4A, PG E1, and nitroglycerin was administered to rats, so that about 65% fall in blood pressure, about 55% fall in blood pressure, and about 35% fall in blood pressure were stepwise attained. With respect to each agent, the recovery of blood pressure was tested.

[7] = enflurane, infusion 1 μg/kg/min
[8] = enflurane, infusion 3 μg/kg/min
[9] = enflurane, infusion 10 μg/kg/min
[10] = enflurane, infusion 30 μg/kg/min
[11] = enflurane, infusion 100 μg/kg/min
[12] = enflurane, infusion 300 μg/kg/min
[13] = enflurane, infusion 1000 μg/kg/min
[14] = enflurane, infusion 3000 μg/kg/min

For `Nc1ncnc2c1ncn2[C@@H]1O[C@H](COP(=O)(O)OP(=O)(O)OP(=O)(O)OP(=O)(O)OC[C@H]2O[C@@H](n3cnc4c(N)ncnc43)[C@H](O)[C@@H]2O)[C@@H](O)[C@H]1O` [Ap4A, diadenosine 5',5'"-p^1,p^4 -tetraphosphate], the “time to submaximal/maximum anti-platelet aggregating effect” value [1] was no more than 1 min, the “inhibition of platelet aggregation” value ([1]; ADP- and Ap3A-induced, result in words) was “Both ADP- and Ap3A-induced platelet aggregations were inhibited; also recorded: inhibits ADP-induced and Ap3A (diadenosine 5', 5'"-p^1,p^4 -triphosphate)-induced platelet-aggregation reactions” and the IC50 ([1]; read-out: Ap4A IC50, ADP (1 × 10^-5 M) induced, 1 min. pretreatment) was 205 µM. It also gave an IC50 ([1]; read-out: Ap4A IC50, ADP (1 × 10^-5 M) induced, 10 min. pretreatment) of 42 µM, an IC50 ([1]; read-out: Ap4A IC50, Ap3A (1 × 10^-4 M) induced, 1 min. pretreatment) of 9.06 µM and an IC50 ([1]; read-out: Ap4A IC50, Ap3A (1 × 10^-4 M) induced, 10 min. pretreatment) of 49.9 µM. The “time to substantially maximum inhibitory effect” value ([1]; result in words) was “substantially maximum effect is obtained within one minute”, the “platelet aggregate dispersing effect” value [2] was “Both ADP- and PAF-induced platelet aggregations were dispersed; also recorded: dispersing aggregated lumps formed by PAF (platelet activating factor) and ADP” and the “B.P. Δ%” value ([3]; bolus injection 0.1 μg/kg) was 0%. For the same compound, the “C.B.F. Δ%” value ([3]; bolus injection 0.1 μg/kg) was 2.7%, the “H.R. Δ%” value ([3]; bolus injection 0.1 μg/kg) was 4.0% and the “B.P. Δ%” value ([3]; bolus injection 0.3 μg/kg) was 0%. For the same compound, the “C.B.F. Δ%” value ([3]; bolus injection 0.3 μg/kg) was 7.9%, the “H.R. Δ%” value ([3]; bolus injection 0.3 μg/kg) was -7.0% and the “B.P. Δ%” value ([3]; bolus injection 1 μg/kg) was 5.0 ± 2.9%. The “C.B.F. Δ%” value ([3]; bolus injection 1 μg/kg) was 9.3 ± 2.5%, the “H.R. Δ%” value ([3]; bolus injection 1 μg/kg) was 10.3 ± 10.1% and the “B.P. Δ%” value ([3]; bolus injection 3 μg/kg) was -6.2 ± 5.0%. The “C.B.F. Δ%” value ([3]; bolus injection 3 μg/kg) was 10.0 ± 2.0%, the “H.R. Δ%” value ([3]; bolus injection 3 μg/kg) was 4.6 ± 3.4% and the “B.P. Δ%” value ([3]; bolus injection 10 μg/kg) was -9.9 ± 4.6%. For the same compound, the “C.B.F. Δ%” value ([3]; bolus injection 10 μg/kg) was 21.7 ± 6.0%, the “H.R. Δ%” value ([3]; bolus injection 10 μg/kg) was 3.2 ± 2.0% and the “B.P. Δ%” value ([3]; bolus injection 30 μg/kg) was -23.2 ± 3.5%. The “C.B.F. Δ%” value ([3]; bolus injection 30 μg/kg) was 16.8 ± 3.5%, the “H.R. Δ%” value ([3]; bolus injection 30 μg/kg) was 6.4 ± 1.2% and the “B.P. Δ%” value ([3]; bolus injection 100 μg/kg) was -34.4 ± 2.5%. For the same compound, the “C.B.F. Δ%” value ([3]; bolus injection 100 μg/kg) was 15.8 ± 4.0%, the “H.R. Δ%” value ([3]; bolus injection 100 μg/kg) was 7.4 ± 3.5% and the “B.P. Δ%” value ([3]; bolus injection 300 μg/kg) was -40.5 ± 5.2%. The “C.B.F. Δ%” value ([3]; bolus injection 300 μg/kg) was 9.8 ± 4.0%, the “H.R. Δ%” value ([3]; bolus injection 300 μg/kg) was 10.9 ± 4.5% and the “B.P. Δ%” value ([3]; bolus injection 1 mg/kg) was -50.4 ± 1.4%. For the same compound, the “C.B.F. Δ%” value ([3]; bolus injection 1 mg/kg) was 8.5 ± 3.4%, the “H.R. Δ%” value ([3]; bolus injection 1 mg/kg) was 7.4 ± 6.0% and the “B.P. Δ%” value ([3]; bolus injection 3 mg/kg) was -54.0 ± 2.5%. The “C.B.F. Δ%” value ([3]; bolus injection 3 mg/kg) was 23.7 ± 9.3%, the “H.R. Δ%” value ([3]; bolus injection 3 mg/kg) was 6.2 ± 21.1% and the “B.P. Δ%” value ([3]; bolus injection 10 mg/kg) was -63.5 ± 5.6%. For the same compound, the “C.B.F. Δ%” value ([3]; bolus injection 10 mg/kg) was 46.3 ± 11.5%, the “H.R. Δ%” value ([3]; bolus injection 10 mg/kg) was -78.8 ± 2.7% and the “B.P. Δ%” value ([3]; bolus injection 30 mg/kg) was -60.7 ± 7.0%. For the same compound, the “C.B.F. Δ%” value ([3]; bolus injection 30 mg/kg) was 34.0 ± 16.9%, the cerebral blood flow ([3]; bolus injection, result in words) was “improved by bolus injection of Ap4A” and the “increase in C.B.F.” value ([3]; bolus, when about 20-40% fall in blood pressure) was 10-20%. For the same compound, the cerebral blood flow ([3]; continuous administration, result in words (FIG. 2)) was “The same effects were also observed in the continuous administration of Ap4A; also recorded: Cerebral blood flow was increased during continuous administration of Ap4A”, the “ADP-induced human platelet-aggregation inhibitory effect” value [4] was “ADP-induced human platelet-aggregation inhibitory effect” and the “administration that gradually decreased blood pressure” value ([5]; enflurane) was no less than 10 µg/kg/min. The “fall in blood pressure” value ([5]; enflurane, 300 μg/kg/min) was “about 40%”, the “fall in blood pressure” value ([5]; enflurane, 1000 μg/kg/min or more) was no less than 60% and the “Blood Pressure (Δ%)” value [5, 7] was 0%. The “Heart Rate (Δ%)” value [5, 7] was 0%, the “Blood Pressure (Δ%)” value [5, 8] was 0% and the “Heart Rate (Δ%)” value [5, 8] was 0%. The “Blood Pressure (Δ%)” value [5, 9] was -4.7 ± 0.6%, the “Heart Rate (Δ%)” value [5, 9] was 1.3 ± 0.6% and the “Blood Pressure (Δ%)” value [5, 10] was -10.2 ± 1.1%. For the same compound, the “Heart Rate (Δ%)” value [5, 10] was 2.7 ± 0.8%, the “Blood Pressure (Δ%)” value [5, 11] was -22.9 ± 1.2% and the “Heart Rate (Δ%)” value [5, 11] was 2.4 ± 1.0%. The “Blood Pressure (Δ%)” value [5, 12] was -43.5 ± 2.2%, the “Heart Rate (Δ%)” value [5, 12] was -6.6 ± 1.2% and the “Blood Pressure (Δ%)” value [5, 13] was -58.6 ± 1.8%. For the same compound, the “Heart Rate (Δ%)” value [5, 13] was -15.9 ± 1.9%, the “Blood Pressure (Δ%)” value [5, 14] was -65.8 ± 1.2% and the “Heart Rate (Δ%)” value [5, 14] was -24.9 ± 2.4%. For the same compound, the “decrease of heart rate” value ([5]; enflurane, result in words) was “A significant decrease of heart rate was observed at about 60% fall in blood pressure”, the “stability of hypotensive effect at each dose” value ([5]; result in words) was “did not significantly change the blood pressure attained by each dose” and the “recovered blood pressure (before administration = 100%)” value ([6]; 1 minute) was “about 70%”. For the same compound, the “recovered blood pressure (before administration = 100%)” value ([6]; 5 minutes) was “about 90%”, the “recovered blood pressure (before administration = 100%)” value ([6]; 10 minutes) was 100% and the “fall in blood pressure attained before recovery” value ([6]; stepwise) was “about 65%”. For the same compound, the “rapidness of the recovery of blood pressure” value ([6]; order in words) was “Ap4A>PG E1 >nitroglycerin” and the rebound hypertension ([6]; result in words) was “without rebound hypertension”.
